Values of other authors in PMC7503219 (International journal of hematology, 2019).

Tested on: GATA-1low mice
Conditions: GATA-1 mouse model of PMF

Compound: N#CCCN [BAPN, β-aminopropionitrile]
- effect on myelofibrotic phenotype: reduced the pathogenesis of the myelofibrotic phenotype
